According to the CheMixHub drug solubility set:

Assay: xn = mol fraction of the nth substance listed, in the solute-free solvent

O=C(O)c1ccc(-n2nc(-c3ccccc3O)nc2-c2ccccc2O)cc1 + CC#N + O
298.15 K
Settings	solubility (g/100 g solution)
x2 = 0.04651	0.126
x2 = 0.0989	0.161
x2 = 0.1583	0.316
x2 = 0.2264	0.736
x2 = 0.3051	1.86
x2 = 0.397	3.21
x2 = 0.506	4.64
x2 = 0.6372	5.9
x2 = 0.798	5.08

CCc1cccc2c3c([nH]c12)C(CC)(CC(=O)O)OCC3 (stereo unspecified) + CC(C)=O + CCCCCC
solubility (g/100 g solution)
Settings	278.15 K	283.15 K	288.15 K	293.15 K	298.15 K	303.15 K	308.15 K	313.15 K	318.15 K	323.15 K
x2 = 0.2707	4.23	4.59	4.94	5.31	5.68	6.06	6.49	6.82	7.19	7.56
x2 = 0.4972	13.3	14.4	15.4	16.4	17.8	19	19.9	20.9	22	23
x2 = 0.69	22.1	23.7	25.3	26.8	28.7	31	32.8	34.7	36.7	38.4
x2 = 0.8558	20.2	21.8	23.3	24.9	26.6	28.4	29.9	31.4	33.3	34.8

O=c1cc(-c2ccccc2)oc2cc(O)c(O)c(O)c12 + CCO + O
solubility (g/100 g solution)
Settings	283.15 K	288.15 K	293.15 K	298.15 K	303.15 K	308.15 K	313.15 K	318.15 K	323.15 K	328.15 K
x2 = 0.2	0.0427	0.0499	0.0671	0.0809	0.0932	0.105	0.128	0.157	0.179	0.228
x2 = 0.4	0.194	0.221	0.262	0.314	0.372	0.444	0.554	0.643	0.73	0.887
x2 = 0.6	0.413	0.455	0.52	0.587	0.663	0.795	0.919	1.07	1.23	1.46
x2 = 0.8	0.474	0.525	0.574	0.634	0.728	0.831	0.939	1.08	1.27	1.51

Cc1cc(Cl)cc(C(=O)O)c1N + CC(C)=O + CO
solubility (g/100 g solution)
Settings	278.15 K	283.15 K	288.15 K	293.15 K	298.15 K	303.15 K	308.15 K	313.15 K	318.15 K	323.15 K
x2 = 0.0885	1.19	1.38	1.68	1.99	2.4	2.86	3.39	4.09	4.87	5.8
x2 = 0.1908	1.63	1.86	2.21	2.59	3.05	3.58	4.22	5.04	5.96	7.04
x2 = 0.3105	2.08	2.33	2.75	3.19	3.7	4.29	5.04	5.98	7.04	8.27
x2 = 0.4522	2.52	2.8	3.28	3.79	4.35	5.01	5.85	6.92	8.12	9.48
x2 = 0.6228	2.96	3.27	3.81	4.39	4.99	5.71	6.66	7.84	9.18	10.7
x2 = 0.832	3.4	3.74	4.34	4.98	5.64	6.42	7.47	8.77	10.2	11.9

CC(C)Oc1ccc2c(=O)c(-c3ccccc3)coc2c1 + CN(C)C=O + CCO
solubility (g/100 g solution)
Settings	278.15 K	283.15 K	288.15 K	293.15 K	298.15 K	303.15 K	308.15 K	313.15 K	318.15 K	323.15 K
x2 = 0.1358	1.29	1.64	2.07	2.55	3.28	4.15	5.33	6.87	8.61	11
x2 = 0.2956	2.42	3	3.68	4.58	5.6	6.95	8.67	10.9	13.3	16.5
x2 = 0.4859	3.8	4.83	5.92	7.22	8.72	10.4	12.9	15.3	18.8	22.7
x2 = 0.716	5.06	6.49	7.97	9.74	11.7	14.2	17.1	20.4	24	28.5

O=CC(O)C(O)C(O)CO (stereo unspecified) + CCO + ClCCl
solubility (g/100 g solution)
Settings	x2 = 0.1	x2 = 0.2	x2 = 0.3	x2 = 0.4	x2 = 0.5	x2 = 0.6	x2 = 0.7	x2 = 0.8	x2 = 0.9
283.15 K	0.222	0.374	0.669	1.02	1.41	1.64	1.88	2.05	2.24
288.15 K	0.227	0.458	0.813	1.26	1.81	2.12	2.32	2.57	2.85
293.15 K	0.254	0.522	1.1	1.55	2.15	2.55	2.96	3.23	3.55
298.15 K	0.264	0.645	1.28	1.9	2.77	3.18	3.69	4.2	4.58
303.15 K	0.325	0.776	1.43	2.28	3.27	4.09	4.72	5.4	5.99

O=C(O)c1ccc(-n2nc(-c3ccccc3O)nc2-c2ccccc2O)cc1 + CCO + CC#N
298.15 K
Settings	solubility (g/100 g solution)
x2 = 0.09009	4.09
x2 = 0.1822	7.7
x2 = 0.2764	11.7
x2 = 0.3727	15.7
x2 = 0.4712	18.8
x2 = 0.572	21.2
x2 = 0.6752	21.4
x2 = 0.7809	19.3
x2 = 0.8891	15.9

O=C(O)c1ccc(-n2nc(-c3ccccc3O)nc2-c2ccccc2O)cc1 + CC(O)CO + CO
298.15 K
Settings	solubility (g/100 g solution)
x2 = 0.0447	13.5
x2 = 0.09525	14.2
x2 = 0.1529	14.4
x2 = 0.2192	14.6
x2 = 0.2963	14.2
x2 = 0.3871	13.7
x2 = 0.4956	12.9
x2 = 0.6275	11.8
x2 = 0.7912	10.4

O=CC(O)C(O)C(O)CO (stereo unspecified) + CC(C)O + CCCCCC
solubility (g/100 g solution)
Settings	x2 = 0.1	x2 = 0.2	x2 = 0.3	x2 = 0.4	x2 = 0.5	x2 = 0.6	x2 = 0.7	x2 = 0.8	x2 = 0.9
283.15 K	0.0751	0.111	0.142	0.164	0.188	0.271	0.405	0.615	0.82
293.15 K	0.0952	0.126	0.198	0.238	0.307	0.453	0.646	0.819	1.12
303.15 K	0.112	0.13	0.233	0.362	0.471	0.665	1	1.4	2.1
313.15 K	0.129	0.16	0.277	0.518	0.76	1.08	1.61	2.29	3.38
323.15 K	0.14	0.247	0.388	0.792	1.16	1.83	2.77	4	6.03

O=C(O)c1ccc(-n2nc(-c3ccccc3O)nc2-c2ccccc2O)cc1 + CC(O)CO + CCO
298.15 K
Settings	solubility (g/100 g solution)
x2 = 0.06303	11.6
x2 = 0.1315	12.2
x2 = 0.206	12.8
x2 = 0.2875	13.4
x2 = 0.3771	13.7
x2 = 0.4759	13.4
x2 = 0.5855	12.4
x2 = 0.7077	11.2
x2 = 0.8449	10.1

N#CC(c1ccc(Cl)cc1)c1c(Cl)cc(-n2ncc(=O)[nH]c2=O)cc1Cl (stereo unspecified) + CN(C)C=O + CCO
solubility (g/100 g solution)
Settings	283.15 K	288.15 K	293.15 K	298.15 K	303.15 K	308.15 K	313.15 K	318.15 K	323.15 K
x2 = 0.1361	3.28	3.86	4.52	5.25	6.05	6.91	7.87	8.89	9.99
x2 = 0.2959	5.7	6.56	7.46	8.51	9.59	10.8	12	13.4	14.7
x2 = 0.486	8.24	9.37	10.4	11.7	12.9	14.2	15.7	17.2	18.8
x2 = 0.716	10.6	11.8	12.9	14.3	15.6	17	18.5	20	21.6

O=CC(O)C(O)C(O)CO (stereo unspecified) + CCO + CCCCCC
solubility (g/100 g solution)
Settings	x2 = 0.1	x2 = 0.2	x2 = 0.3	x2 = 0.4	x2 = 0.5	x2 = 0.6	x2 = 0.7	x2 = 0.8	x2 = 0.9
283.15 K	0.0708	0.0912	0.139	0.18	0.281	0.514	0.692	1.16	1.73
293.15 K	0.0738	0.111	0.171	0.268	0.425	0.715	1.07	1.56	2.52
303.15 K	0.0959	0.119	0.186	0.375	0.676	1.1	1.5	2.39	4.09
313.15 K	0.117	0.179	0.269	0.599	0.925	1.8	2.44	4.02	6.9
323.15 K	0.147	0.234	0.317	0.98	1.54	2.72	3.96	6.76	12.3

Cc1cc(Cl)cc(C(=O)O)c1N + CC(C)=O + CCCCCC
solubility (g/100 g solution)
Settings	278.15 K	283.15 K	288.15 K	293.15 K	298.15 K	303.15 K	308.15 K	313.15 K	318.15 K	323.15 K
x2 = 0.2386	0.677	0.753	0.884	1.03	1.18	1.35	1.58	1.88	2.21	2.59
x2 = 0.4322	1.29	1.42	1.66	1.92	2.18	2.5	2.92	3.45	4.05	4.74
x2 = 0.5923	1.87	2.05	2.39	2.75	3.12	3.56	4.16	4.9	5.75	6.71
x2 = 0.7271	2.4	2.64	3.07	3.53	3.99	4.55	5.31	6.25	7.32	8.52
x2 = 0.842	2.91	3.2	3.71	4.26	4.81	5.48	6.38	7.5	8.77	10.2
x2 = 0.9411	3.39	3.72	4.31	4.95	5.58	6.35	7.38	8.66	10.1	11.7

Cl.NC(C=O)C(O)C(O)C(O)CO (stereo unspecified) + O + CCO
solubility (g/100 g solution)
Settings	283.15 K	288.15 K	293.15 K	298.15 K	303.15 K	308.15 K	313.15 K	318.15 K	323.15 K
x2 = 0.4	0.614	0.658	0.736	0.832	0.899	0.944	1.08	1.18	1.27
x2 = 0.5	1.17	1.37	1.55	1.68	1.79	2.1	2.32	2.52	2.83
x2 = 0.6	2.21	2.56	2.9	3.34	3.6	3.91	4.59	4.86	5.43
x2 = 0.7	3.86	4.61	5.18	5.66	6.46	7.67	8.39	9.2	10.5
x2 = 0.8	6.88	7.72	8.59	9.69	10.7	11.8	13.1	14.6	16.1
x2 = 0.9	12.3	13.1	14.5	16.1	17.4	19	20.6	22.3	23.9
